Where two headings read alike, the source gives them in different places.
Legend:
[1] = system: Haemonchus contortus; test: Method A: Haemonchus contortus L1 larval development/motility screen in microtitre plate; assay type: cell-based; details: 96 h, read-out: motility inhibition
[2] = system: microfilaria of Dirofilaria immitis; test: Method C: microfilaria of Dirofilaria immitis motility screen; assay type: cell-based; details: read-out: inhibition of the microfilaria's motility
[3] = human, Caco-2, pH 6.5
Protocol: Permeability of Compounds.
An in vitro model utilizing Caco-2/TC7 cells is employed to assess the permeability characteristics of new chemical entities (NCEs).
The permeability studies were performed under standard conditions in the apical to basolateral (A→B) direction with a pH gradient and a BSA gradient (standard apical medium (0.5% BSA at pH 6.5)/standard basal medium (5% BSA at pH 7.4)); conditions that most closely reflect the conditions in the in vivo situation. Samples were deproteinized by the addition of 400 μl acetonitrile to 200 μl sample, followed by a 20-minute centrifugation at 1730 g. Compound solubilisation: compound solutions at final concentrations of 20 μM were prepared following dilutions of stock solutions (starting from 10 mM in DMSO) in HBSS. Final concentration of DMSO was adjusted to 1%. Analytical conditions: Supernatants recovered following centrifugation were analysed by LC/MS/MS using a reverse phase column and the mobile phases delivered at 0.3 ml/minute in a gradient: water (A) and acetonitrile (B) (each with 0.1% formic acid).
Every experiment (n) represents the mean of 3 filters per experiment.

Structure (SMILES)	inhibition at 5 µM [1] [%]	inhibition at 10 µM ([2]; 24 h) [%]	Papp A→B at 20 μM [3] [×10⁻⁶ cm/s]	also measured
O=C(CC1CCC1)N1CCN(c2cc(O[C@H]3CC[C@H](Nc4ccc([N+](=O)[O-])c(C(F)(F)F)c4)CC3)ccn2)CC1 [Compound 8]	≥ 90	≥ 90	4.01	–
O=[N+]([O-])c1ccc(N[C@H]2CC[C@H](Oc3cncc(N4CCN(Cc5ccc(F)cc5)CC4)c3)CC2)cc1C(F)(F)F [Compound 4, 4-nitro-N-[4-[(5-[4-[(4-fluorophenyl)methyl]piperazin-1-yl]pyridin-3-yl)oxy]cyclohexyl]-3-(trifluoromethyl)aniline]	–	≥ 90	1.84	inhibition at 1 µM ([2]; 24 h): ≥ 90%
O=C(Cc1ccc(F)cc1)N1CCN(c2cncc(O[C@H]3CC[C@H](Nc4ccc([N+](=O)[O-])c(C(F)(F)F)c4)CC3)c2)CC1 [Compound 22]	≥ 90	–	1.57	inhibition at 10 µM ([2]; 10 μM, 24 hours): ≥ 90%
CC(C)(C)OC(=O)N1CCN(c2cncc(O[C@H]3CC[C@H](Nc4ccc([N+](=O)[O-])c(C(F)(F)F)c4)CC3)c2)CC1 [Compound 15]	≥ 90	–	2.07	–
CC(C)(C)OC(=O)N1CCN(c2cc(O[C@H]3CC[C@H](Nc4ccc([N+](=O)[O-])c(C(F)(F)F)c4)CC3)ccn2)CC1 [Compound 34]	≥ 90	–	1.77	inhibition at 5 ppm ([2]; 24 h): ≥ 90%
CC(C)(C)OC(=O)N1CCN(c2ccnc(O[C@H]3CC[C@H](Nc4ccc([N+](=O)[O-])c(C(F)(F)F)c4)CC3)c2)CC1 [Compound 13]	≥ 90	–	0.78	inhibition at 5 ppm ([2]; 24 h): ≥ 90%
CCCCC(=O)N1CCN(c2cc(O[C@H]3CC[C@H](Nc4ccc([N+](=O)[O-])c(C(F)(F)F)c4)CC3)ccn2)CC1 [Compound 10]	≥ 90	–	5.81	–
CCCOC(=O)N1CCN(c2ccnc(O[C@H]3CC[C@H](Nc4ccc([N+](=O)[O-])c(C(F)(F)F)c4)CC3)c2)CC1 [Compound 36]	≥ 90	≥ 90	2.41	–
CCCOC(=O)N1CCN(c2cncc(O[C@H]3CC[C@H](Nc4ccc([N+](=O)[O-])c(C(F)(F)F)c4)CC3)c2)CC1 [Compound 21]	≥ 90	–	3.45	inhibition at 5 ppm ([2]; 24 h): ≥ 90%
O=C(CC1CCCC1)N1CCN(c2cc(O[C@H]3CC[C@H](Nc4ccc([N+](=O)[O-])c(C(F)(F)F)c4)CC3)ccn2)CC1 [Compound 3, 2-Cyclopentyl-1-[4-(4-[[4-[[4-nitro-3-(trifluoromethyl)phenyl]amino]cyclohexyl]oxy]pyridin-2-yl)piperazin-1-yl]ethan-1-one]	–	≥ 90	2.64	–
O=[N+]([O-])c1ccc(N[C@H]2CC[C@H](Oc3cncc(N4CCN(Cc5ccc(C(F)(F)F)cc5)CC4)c3)CC2)cc1C(F)(F)F [Compound 18]	≥ 90	≥ 90	0.53	–
O=C(OC1CCCC1)N1CCN(c2ccnc(O[C@H]3CC[C@H](Nc4ccc([N+](=O)[O-])c(C(F)(F)F)c4)CC3)c2)CC1 [Compound 9, cyclopentyl 4-[2-[(4-[[4-nitro-3-(trifluoromethyl)phenyl]amino]cyclohexyl)oxy]pyridin-4-yl]piperazine-1-carboxylate]	≥ 90	–	1.08	–
O=C(Oc1ccc(F)cc1)N1CCN(c2cncc(O[C@H]3CC[C@H](Nc4ccc([N+](=O)[O-])c(C(F)(F)F)c4)CC3)c2)CC1 [Compound 11]	≥ 90	–	0.55	–
CCCC(=O)N1CCN(c2cncc(O[C@H]3CC[C@H](Nc4ccc([N+](=O)[O-])c(C(F)(F)F)c4)CC3)c2)CC1 [Compound 31]	≥ 90	–	10.7	–
CCCOC(=O)N1CCN(c2cc(O[C@H]3CC[C@H](Nc4ccc([N+](=O)[O-])c(C(F)(F)F)c4)CC3)ccn2)CC1 [Compound 26]	≥ 90	≥ 90	–	–
COC(=O)N1CCN(c2cc(O[C@H]3CC[C@H](Nc4ccc([N+](=O)[O-])c(C(F)(F)F)c4)CC3)ccn2)CC1 [Compound 75]	≥ 90	–	–	inhibition at 10 µM ([2]; 10 μM, 24 hours): ≥ 90%
CC(C)(C)NC(=O)N1CCN(c2ccnc(O[C@H]3CC[C@H](Nc4ccc([N+](=O)[O-])c(C(F)(F)F)c4)CC3)c2)CC1 [Compound 65, N-tert-butyl-4-[2-[(4-[[4-nitro-3-(trifluoromethyl)phenyl]amino]cyclohexyl)oxy]pyridin-4-yl]piper-azine-1-carboxamide]	≥ 90	–	–	inhibition at 5 ppm ([2]; 24 h): ≥ 90%
O=[N+]([O-])c1ccc(N[C@H]2CC[C@H](Oc3ccnc(N4CCN(Cc5nc6cc(C(F)(F)F)ccc6s5)CC4)c3)CC2)cc1C(F)(F)F [Compound 86]	≥ 90	–	–	inhibition at 5 ppm ([2]; 24 h): ≥ 90%
O=C(NC1CCCC1)N1CCN(c2ccnc(O[C@H]3CC[C@H](Nc4ccc([N+](=O)[O-])c(C(F)(F)F)c4)CC3)c2)CC1 [Compound 69]	≥ 90	≥ 90	–	–
CCCN1CCN(c2cncc(O[C@H]3CC[C@H](Nc4ccc([N+](=O)[O-])c(C(F)(F)F)c4)CC3)c2)CC1 [Compound 77]	≥ 90	≥ 90	–	–
N#Cc1ccc(N[C@H]2CC[C@H](Oc3ccnc(N4CCN(C(=O)CC5CCCC5)CC4)c3)CC2)cc1C(F)(F)F [Compound 177]	≥ 90	≥ 90	–	–
CC(C)(C)CN1CCN(c2cc(O[C@H]3CC[C@H](Nc4ccc([N+](=O)[O-])c(C(F)(F)F)c4)CC3)ccn2)CC1 [Compound 67]	≥ 90	–	–	inhibition at 10 µM ([2]; 10 μM, 24 hours): ≥ 90%
O=C(CC1CCCC1)N1CCN(c2ccnc(O[C@H]3CC[C@H](Nc4ccc([N+](=O)[O-])c(C(F)(F)F)c4)CC3)c2)CC1 [Compound 5, 2-cyclopentyl-1-(4-(2-(4-(4-nitro-3-(trifluoromethyl)phenylamino)cyclohexyloxy)pyridin-4-yl)piperazin-1-yl)ethanone]	≥ 90	–	–	inhibition at 5 ppm ([2]; 24 h): ≥ 90%
O=[N+]([O-])c1ccc(N[C@H]2CC[C@H](Oc3ccc(N4CCN(c5ccc6cc(C(F)(F)F)ccc6n5)CC4)nc3)CC2)cc1C(F)(F)F [Compound 102]	–	–	0.01	–
CCCNC(=O)N1CCN(c2cncc(O[C@H]3CC[C@H](Nc4ccc([N+](=O)[O-])c(C(F)(F)F)c4)CC3)c2)CC1 [Compound 95]	≥ 90	–	–	inhibition at 10 µM ([2]; 10 μM, 24 hours): ≥ 90%
O=C(CC1CC1)N1CCN(c2cc(O[C@H]3CC[C@H](Nc4ccc([N+](=O)[O-])c(C(F)(F)F)c4)CC3)ccn2)CC1 [Compound 28]	≥ 90	≥ 90	–	–
CCOCCC(=O)N1CCN(c2cc(O[C@H]3CC[C@H](Nc4ccc([N+](=O)[O-])c(C(F)(F)F)c4)CC3)ccn2)CC1 [Compound 70]	≥ 90	≥ 90	–	–
O=[N+]([O-])c1ccc(N[C@H]2CC[C@H](Oc3ccc(N4CCN(C/C=C/c5ccc(C(F)(F)F)cc5)CC4)nc3)CC2)cc1C(F)(F)F [Compound 80]	≥ 90	–	–	inhibition at 1 ppm ([2]; 24 h): ≥ 90%; inhibition at 5 ppm ([2]; 24 h): ≥ 90%
CC(C)(C)NC(=O)N1CCN(c2cc(O[C@H]3CC[C@H](Nc4ccc([N+](=O)[O-])c(C(F)(F)F)c4)CC3)ccn2)CC1 [Compound 49]	≥ 90	≥ 90	–	–
CCC(=O)N1CCN(c2cc(O[C@H]3CC[C@H](Nc4ccc([N+](=O)[O-])c(C(F)(F)F)c4)CC3)ccn2)CC1 [Compound 60]	≥ 90	–	–	inhibition at 10 µM ([2]; 10 μM, 24 hours): ≥ 90%

— patent US10597364B2, “Anthelmintic compounds, compositions and method of using thereof” (priority 2015, dated 2020)
